Consider 17 compounds from US6596772B1, “Phosphate mimics and methods of treatment using phosphatase inhibitors” (Sugen, Inc., priority 1999, dated 2003).

pIC50: −log10 of the molar value. Read-outs that look alike come from different tables or passages of the source. Bounds are passed on as bounds.

Common to all, as to test: PTP IC50 assay, fluorescent substrate DiFMUP
Format in all cases: biochemical

One assay addresses T1, PTP EPSILON (Homo sapiens, UniProt P23469).
T1 construct: made in house; host or cells: Sf-9 insect cells (pFastBac-G2T); a pGEX 6P-1 construct also existed
From the text: The PTPepsilon cDNA was amplified from human placenta single-strand cDNA (Clontech RNA) using the following oligonucleotides: 5′oligo: 5′-[…]-3′ (SEQ ID NO: 6) 3′oligo: 5′-[…]-3′ (SEQ ID NO: 7) After cloning this PCR product into the Bam HI/Xho I sites of pGEX 6P-1, this phosphatase was subcloned using the same restriction sites in pFastBac-G2T.
(§1) The following in vitro assay procedure is preferred to determine the level of activity and effect of the different compounds of the present invention on one or more of the PTPs. Similar assays can be designed along the same lines for any PTP using techniques well known in the art.
(§2) The catalytic assays described herein are performed in a 96-well format. The general procedure begins with the determination of PTP optimal pH using a three-component buffer system that minimizes ionic strength variations across a wide range of buffer pH. Next, the Michaelis-Menten constant, or Km, is determined for the substrate 6,8-difluoro-4-methylumbelliferyl phosphate (DiFMUP). This Km value is subsequently used as the substrate reaction concentration for compound screening. Finally, the test PTP is exposed to varying concentrations of compound for fifteen minutes and allowed to react with substrate for ten minutes. The results are plotted as percent inhibition versus compound concentration and the IC50 interpolated from the plot.
(§3) All assays were performed using DiFMUP as substrate. The optimum pH and substrate Km was determined for each PTP used.
(§4) PTPase activity was assayed at 25° C. in a 100-μl reaction mixture containing an appropriate concentration of DiFMUP as substrate. The reaction was initiated by addition of the purified PTP and quenched after 10 min by addition of 1% H2O2/100 mM NaCl. The non-enzymatic hydrolysis of the substrate was corrected by measuring the control without the addition of the enzyme. The amount of DiFMU produced was determined from the increase in the fluorescence (360 nm excitation/460 nm emission) over that of background in the absence of PTPase. To determine the kinetic parameter, Km, the initial velocities were measured at various substrate concentrations and the data were fitted to the Michaelis equation where velocity=(Vmax*[S])/(Km+[S]), and [S]=substrate reaction concentration.
(§5) The effect of the compounds on PTP was evaluated at 25° C. using DiFMUP as substrate. PTP was pre-incubated for fifteen minutes with various concentrations of compound. Substrate was then added at a fixed concentration (usually equal to the Km previously calculated). After 10 minutes, the reaction was quenched. The hydrolysis of DiFMUP was followed as described above. The percent inhibition was calculated as follows: Percent Inhibition=[(control signal−compound signal)/control signal]×100%. The IC50 was then determined by interpolation of a percent inhibition versus compound concentration plot.
(§6) Plasmids designed for bacterial GST-PTP fusion protein expression were derived by insertion of PCR-generated human PTP fragments into pGEX vectors (Pharmacia Biotech). Several of these constructs were then used to subclone phosphatases into pFastBac-1 for expression in Sf-9 insect cells. Oligonucleotides used for the initial amplification of PTP genes are as described above. The cDNAs were prepared using the Gilbo BRL superscript preamplification system on RNAs purchased from Clontech.

For a further assay, the target named is T2, PTP 1B (Homo sapiens, UniProt P18031).
T2 construct: made in house; host or cells: Sf-9 insect cells (pFastBac-G2T)
T2 sequence (P18031 1-435): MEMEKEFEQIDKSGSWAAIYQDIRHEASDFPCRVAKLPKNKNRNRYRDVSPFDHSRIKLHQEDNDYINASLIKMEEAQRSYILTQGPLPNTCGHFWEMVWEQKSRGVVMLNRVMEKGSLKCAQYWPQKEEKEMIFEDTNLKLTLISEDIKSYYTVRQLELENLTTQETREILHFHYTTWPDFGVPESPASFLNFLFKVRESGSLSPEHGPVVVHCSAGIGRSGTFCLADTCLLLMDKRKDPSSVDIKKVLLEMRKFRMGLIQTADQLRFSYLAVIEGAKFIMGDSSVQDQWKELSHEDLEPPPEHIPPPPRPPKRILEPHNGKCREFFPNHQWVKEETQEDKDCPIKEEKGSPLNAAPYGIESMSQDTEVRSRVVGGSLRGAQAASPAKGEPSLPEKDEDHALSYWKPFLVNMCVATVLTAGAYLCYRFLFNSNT
From the text: The PTP1b cDNA was amplified from human placenta single strand cDNA (Clontech RNA) using the following oligonucleotides: 5′oligo: 5′-[…] (SEQ ID NO: 4) 3′oligo: 5′-[…] (SEQ ID NO: 5) It was subsequently ligated into pFasBac G2TBamH1Xba-1 sites.
as §1, §2, §3, §4, §5, §6

The target of the next assay is T3, PTP SHP2 (Homo sapiens, UniProt Q06124).
T3 construct: The catalytic domain was amplified using the following oligonucleotides; made in house; host or cells: Sf-9 insect cells (pFastBac-G2T)
T3 sequence (Q06124 247-517 limits assumed): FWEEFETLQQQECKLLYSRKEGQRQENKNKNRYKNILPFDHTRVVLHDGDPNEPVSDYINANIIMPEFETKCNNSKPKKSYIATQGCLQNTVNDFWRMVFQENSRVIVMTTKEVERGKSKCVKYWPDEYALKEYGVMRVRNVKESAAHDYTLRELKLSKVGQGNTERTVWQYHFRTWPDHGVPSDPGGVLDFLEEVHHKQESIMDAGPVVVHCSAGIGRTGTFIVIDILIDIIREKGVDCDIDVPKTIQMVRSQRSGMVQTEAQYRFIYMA
The settings on record: DiFMUP as substrate, 25° C.; read-out: PTP IC50 SHP2.
From the text: SHP-2 cDNA was used as described earlier (Vogel W., et al.,1993, Science, 259:1611-4). The catalytic domain was amplified using the following oligonucleotides 5′oligo: 5′-[…]-3′ (SEQ ID NO: 2) 3′oligo: 5′-[…]-3′ (SEQ ID NO: 3) and subsequently subcloned into BamH1-Xba-1 sites. It was then ligated into pfas Bac-G2T BamH1-Xba-1 sites.
as §1, §2, §3, §4, §5, §6

Setting [1] is: DiFMUP as substrate, 25° C., read-out: PTP IC50 Epilson.
The mark [2] stands for this setting: DiFMUP as substrate, 25° C., read-out: PTP IC50 1B.

In general, pIC50 refers to −log10 of the IC50, conventionally taken in molar units.

T1 sequence (P23469 80-393 limits assumed): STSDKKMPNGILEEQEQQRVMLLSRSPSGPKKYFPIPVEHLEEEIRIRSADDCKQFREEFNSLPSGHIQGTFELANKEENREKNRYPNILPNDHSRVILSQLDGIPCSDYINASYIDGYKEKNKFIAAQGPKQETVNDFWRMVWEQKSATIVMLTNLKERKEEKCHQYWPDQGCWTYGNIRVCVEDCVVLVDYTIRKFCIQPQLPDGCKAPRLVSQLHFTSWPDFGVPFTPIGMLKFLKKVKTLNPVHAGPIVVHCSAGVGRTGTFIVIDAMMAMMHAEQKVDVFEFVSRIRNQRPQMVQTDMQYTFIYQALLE

Turning to `O=C(Cc1ccccc1CC(=O)Nc1ccc(S(=O)(=O)C(F)(F)F)cc1)Nc1ccc(S(=O)(=O)C(F)(F)F)cc1` [Example 32, N-(4-Trifluoromethanesulfonyl-phenyl)-2-{2-[(4-trifluoromethanesulfonyl-phenylcarbamoyl)-methyl]-phenyl}-acetamide], the negative-log IC50 (pIC50) was 4.76 on PTP EPSILON (setting [1]), 5.11 on PTP 1B (setting [2]) and 4.84 on PTP SHP2.

`O=C(Cc1cccc(CC(=O)Nc2ccc(S(=O)(=O)C(F)(F)F)cc2)c1)Nc1ccc(S(=O)(=O)C(F)(F)F)cc1` [Example 33, N-(4-Trifluoromethanesulfonyl-phenyl)-2-{3-[(4-trifluoromethanesulfonyl-phenylcarbamoyl)-methyl]-phenyl}-acetamide]: the pIC50 at PTP EPSILON (setting [1]) was 4.69; on PTP 1B (setting [2]) it was 5.64; on PTP SHP2, 5.64.

Take `O=C(Cc1ccc(CC(=O)Nc2ccc(S(=O)(=O)C(F)(F)F)cc2)cc1)Nc1ccc(S(=O)(=O)C(F)(F)F)cc1` [Example 34, N-(4-Trifluoromethanesulfonyl-phenyl)-2-{4-[(4-trifluoromethanesulfonyl-phenylcarbamoyl)-methyl]-phenyl}-acetamide]: the results for the negative-log IC50 (pIC50) at PTP EPSILON (setting [1]), on PTP 1B (setting [2]) and on PTP SHP2 were 5.04, 5.41 and 5.64, respectively.

With `CCn1c(-c2ccc(C(=O)OC)cc2)nc2cc(S(=O)(=O)C(F)(F)F)ccc21` [Example 35, 4-(1-Ethyl-5-trifluoromethanesulfonyl-1H-benzoimidazol-2-yl)-benzoic acid methyl ester], the pIC50 was 4.49 on PTP EPSILON (setting [1]) and 4.50 on PTP SHP2.

On to `CCn1c(-c2ccc(C(=O)O)cc2)nc2cc(S(=O)(=O)C(F)(F)F)ccc21` [Example 36, 4-(1-Ethyl-5-trifluoromethanesulfonyl-1H-benzoimidazol-2-yl)-benzoic acid], for which the pIC50 at PTP EPSILON (setting [1]) is 4.21; on PTP 1B (setting [2]) it was under 4.70; at PTP SHP2, 4.24.

With `CCn1c(-c2ccc(C(=O)Nc3ccncc3)cc2)nc2cc(S(=O)(=O)C(F)(F)F)ccc21` [Example 37, 4-(1-Ethyl-5-trifluoromethanesulfonyl-1H-benzoimidazol-2-yl)-N-pyridin-4-yl-benzamide], the results for the pIC50 at PTP EPSILON (setting [1]), on PTP 1B (setting [2]) and at PTP SHP2 were 4.69, under 4.70 and 4.72, respectively.

On to `CCOC(=O)CNC(=O)C(c1ccc(S(=O)(=O)C(F)(F)F)cc1)N(C)C(C)=O` (centres unmarked) [Example 47, [2-(Acetyl-methyl-amino)-2-(4-trifluoromethanesulfonyl-phenyl)-acetylamino]-acetic acid ethyl ester], for which the negative-log IC50 (pIC50) on PTP SHP2 was under 4.00.

Consider `CCOC(=O)CNC(=O)C(c1ccc(S(=O)(=O)C(F)(F)F)cc1)N(C(=O)c1ccccc1)C1CCCCC1` (centres unmarked) [Example 48, [2-(Benzoyl-cyclohexyl-amino)-2-(4-trifluoromethanesulfonyl-phenyl)-acetylamino]-acetic acid ethyl ester], for which the pIC50 was 4.64 on PTP 1B (setting [2]) and 4.42 on PTP SHP2.

With `CCOC(=O)c1cc(Oc2ccc(S(=O)(=O)C(F)(F)F)cc2[N+](=O)[O-])c(C(=O)OCC)cc1Oc1ccc(S(=O)(=O)C(F)(F)F)cc1[N+](=O)[O-]` [Example 54, 2,5-Bis-(2-nitro-4-trifluoromethanesulfonyl-phenoxy)-terephthalic acid diethyl ester], the pIC50 at PTP 1B (setting [2]) is under 4.70; at PTP SHP2 it was 6.15.

With `O=[N+]([O-])c1cc(S(=O)(=O)C(F)(F)F)ccc1OCC(CN1CCCCC1)Oc1ccc(S(=O)(=O)C(F)(F)F)cc1[N+](=O)[O-]` (centres unmarked) [Example 55, 1-[2,3-Bis-(2-nitro-4-trifluoromethanesulfonyl-phenoxy)-propyl]-piperidine], the pIC50 is 5.62 at PTP EPSILON (setting [1]) and 5.48 on PTP SHP2.

As to `O=[N+]([O-])c1cc(S(=O)(=O)C(F)(F)F)ccc1OCC(CN1CCOCC1)Oc1ccc(S(=O)(=O)C(F)(F)F)cc1[N+](=O)[O-]` (centres unmarked) [Example 56, 4-[2,3-Bis-(2-nitro-4-trifluoromethanesulfonyl-phenoxy)-propyl]-morpholine], the values for the negative-log IC50 (pIC50) on PTP 1B (setting [2]) and on PTP SHP2 were 5.32 and 5.54, respectively.

With `O=[N+]([O-])c1ccccc1NCC(COc1ccc(S(=O)(=O)C(F)(F)F)cc1[N+](=O)[O-])Oc1ccc(S(=O)(=O)C(F)(F)F)cc1[N+](=O)[O-]` (centres unmarked) [Example 57, [2,3-Bis-(2-nitro-4-trifluoromethanesulfonyl-phenoxy)-propyl]-(2-nitro-phenyl)-amine], the figures for the pIC50 at PTP EPSILON and on PTP 1B were 6.22 and under 4.70, respectively.

In the case of `NS(=O)(=O)c1ccc(NCC(O)COc2ccc(S(=O)(=O)C(F)(F)F)cc2[N+](=O)[O-])cc1` (centres unmarked) [Example 61, 4-[2-Hydroxy-3-(2-nitro-4-trifluoromethanesulfonyl-phenoxy)-propylamino]-benzenesulfonamide], the values for the pIC50 at PTP EPSILON (setting [1]) and at PTP SHP2 were 5.13 and 5.77, respectively.

For the compound `NS(=O)(=O)c1ccc(NCC(COc2ccc(S(=O)(=O)C(F)(F)F)cc2[N+](=O)[O-])Oc2ccc(S(=O)(=O)C(F)(F)F)cc2[N+](=O)[O-])cc1` (centres unmarked) [Example 62, 4-[2,3-Bis-(2-nitro-4-trifluoromethanesulfonyl-phenoxy)-propylamino]-benzenesulfonamide], the pIC50 at PTP EPSILON (setting [1]) was 5.24; at PTP SHP2 it was 5.64.

For `O=S(=O)(c1ccc(-c2ncc(-c3ccc4ccccc4c3)o2)cc1)C(F)F` [Example 64, 2-[4-(Difluoro-methanesulfonyl)-phenyl]-5-naphthalen-2-yl-oxazole], the pIC50 is 5.27 at PTP 1B (setting [2]) and 5.23 on PTP SHP2.

On to `Cc1ccc(Nc2ccc(S(=O)(=O)C(F)(F)C(F)F)cc2[N+](=O)[O-])cc1` [Example 65, [2-Nitro-4-(1,1,2,2-tetrafluoro-ethanesulfonyl)-phenyl]-p-tolyl-amine], for which the results for the negative logarithm of the IC50 (pIC50) at PTP 1B (setting [2]) and on PTP SHP2 were 4.94 and 4.88, respectively.

With `Cc1cc2cc(NS(=O)(=O)C(F)(F)F)ccc2n1CC(=O)Nc1ccc(C(=O)O)cc1` [Example 85, 4-[2-(2-Methyl-5-trifluoromethanesulfonylamino-indol-1-yl)-acetylamino]-benzoic acid], the negative-log IC50 (pIC50) is under 4.70 at PTP EPSILON (setting [1]) and 4.76 at PTP 1B (setting [2]).
